Assay type in all cases: biochemical
In test [1] the target is T1, human plasmin (Homo sapiens, UniProt P00747). The test is described as follows: Antiplasmin activity: inhibition of S-2251 decomposition. Conditions: Table 2; substrate S-2251, pH 7.4, 37°C; read-out: Plasmin S-2251 (concentration I₅₀). On the procedure: (ii) Determination of inhibition activity on S-225l decomposition
An inhibitor sample is dissolved in a 0.05 M Tris-hydrochloric acid buffer solution (pH = 7.4) to bring the total volume to 400 µl. To this solution, 50 µl of a 3 mM S-225l solution is added and the mixture is incubated at a temperature of 37°C for 5 minutes in a constant temperature bath. Then 50 µl of a 0.2 casein unit/ml human plasmin is added and the mixture is incubated at a temperature of 37°C for 4 minutes. Thereafter, the reaction is stopped by adding 50 µl of 50% acetic acid.
Thus, the concentration I₅₀ (µmol) of the inhibitor sample, at which the absorbance is one half (i.e., l/2) of that obtained in the absence of the inhibitor, is determined.

Test [2] concerns the target T1, human plasmin. The test is described as follows: Antiplasmin activity: inhibition of fibrin decomposition. Conditions: Table 2; concentration at which fibrin dissolution time is extended twice, pH 7.4, 37°C; read-out: Plasmin Fibrin (concentration I₅₀). The procedure: (i) Determination of inhibition activity on fibrin decomposition
An inhibitor sample is dissolved in a 0.l8 M borate-physiological salt buffer solution (pH = 7.4) to bring the total volume to 600 µl. To this buffer solution, 200 µl of a 0.2% bovine fibrinogen, l00 µl of a 0.3 casein unit/ml human plasmin solution, and l00 µl of a 50 unit/ml bovine thrombin solution, all dissolved in the above-mentioned buffer, are added at a temperature of 37°C in a constant temperature bath. The dissolution time of the fibrin mass formed above is then determined.

Test [3] has as its target T2, bovine thrombin (Bos taurus, UniProt P00735). The test is described as follows: Antithrombin activity: inhibition of S-2238 decomposition. The procedure: (ii) Determination of inhibition activity on S-2238 decomposition
An inhibitor sample is dissolved in a 0.05 M Tris-hydrochloric acid buffer solution (pH = 8.3) to bring the a total volume to 400 µl. To this solution, 50 µl of a 0.2 mM S-2238 solution is added and the mixture is incubated at a temperature of 37°C for 5 minutes in a constant temperature bath. Then 50 µl of a 0.2 unit/ml bovine thrombin solution is added thereto and the absorbance, at 405 nm, of the p-nitroaniline formed per minute is determined at a temperature of 37°C by using the so-called initial velocity method. Thus, the concentration I₅₀ (µmol) of the inhibitor sample, at which the absorbance is one half (i.e., l/2) of that obtained in the absence of the inhibitor sample, is determined.

In test [4] the target is T2, bovine thrombin. The test is described as follows: Antithrombin activity: inhibition of fibrin formation from fibrinogen. On the procedure: (i) Determination of inhibition activity against fibrin formation
An inhibitor sample is dissolved in a 0.l8 M borate-physiological salt buffer solution (pH = 7.4) to bring the total volume to 500 µl. To this solution, 400 µl of a 0.2% bovine fibrinogen solution and l00 µl of a 4 unit/ml bovine thrombin solution are added at a temperature of 37°C in a constant temperature bath. Thus, a coagulation time is determined. The inhibitor concentration I₅₀ (µmol), at which the coagulation time obtained in the absence of the inhibitor is extended twice, is determined.

The target in the next test is T3, bovine trypsin (Bos taurus, UniProt P00760).
T3 sequence (P00760 24-246): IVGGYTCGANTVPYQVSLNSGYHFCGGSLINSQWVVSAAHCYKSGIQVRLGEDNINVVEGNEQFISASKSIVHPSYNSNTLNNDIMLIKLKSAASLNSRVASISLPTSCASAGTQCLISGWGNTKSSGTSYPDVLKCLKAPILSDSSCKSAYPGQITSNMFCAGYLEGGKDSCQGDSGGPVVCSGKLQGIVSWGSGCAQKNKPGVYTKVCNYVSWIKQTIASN
As to the kind of experiment: Antitrypsin activity: inhibition of S-2238 decomposition. Conditions: Table 2; substrate S-2238, pH 8.1, 37°C; read-out: Trypsin S-2238 (concentration I₅₀). On the procedure: Determination of inhibition activity against S-2238 decomposition An inhibitor sample is dissolved in a 0.05 M Tris-imidazole buffer solution (pH = 8.l) and l25 µl of a l mM S-2238 solution is added to bring the total volume to l.20 ml. The mixture is incubated at a temperature of 37°C for 5 minutes in a constant temperature bath. To this mixture, 0.05 ml of bovine trypsin is added and the absorbance, at 405 nm, of the p-nitroaniline formed per minute is determined at a temperature of 37°C by using the so-called initial velocity method. Thus, the concentration I₅₀ (µmol) of the inhibitor sample, at which the absorbance is one half (i.e., l/2) of that obtained in the absence of the inhibitor sample, is determined.

The target in another test is human urokinase (Homo sapiens, UniProt P00749). As to the kind of experiment: Antiurokinase activity: inhibition of S-2444 decomposition. The settings on record: Table 2; substrate S-2444, pH 8.8, 37°C; read-out: Urokinase S-2444 (concentration I₅₀). The procedure: Determination of inhibition activity for S-2444 decomposition
An inhibitor sample is dissolved in a 0.05 M Tris-hydrochloric acid buffer solution (pH = 8.8) to bring the total volume to 400 µl. To this solution, 50 µl of a l mM S-2444 solution is added and the mixture is incubated at a temperature of 37°C for 5 minutes in a constant temperature bath. Then 50 µl of a 500 unit/ml human urokinase is added and the mixture is incubated at a temperature of 37°C for 5 minutes. Thereafter, 50 µl of 50% acetic acid is added to terminate the reaction. The absorbance of the p-nitroaniline formed in the reaction mixture is measured at 405 nm. Thus, the concentration I₅₀ (µmol) of the inhibitor sample, at which the absorbance is one half (i.e., l/2) of that obtained in the absence of the inhibitor sample, is determined.

A further test deals with human plasma kallikrein (Homo sapiens, UniProt P03952). As to the kind of experiment: Anti-plasma kallikrein activity: inhibition of S-2302 decomposition. The settings on record: Table 2; substrate S-2302, pH 7.8, 37°C; read-out: Plasma Kallikrein S-2302 (concentration I₅₀). The procedure: An inhibitor sample is dissolved in a 0.05 M Tris-hydrochloric acid buffer solution (pH = 7.8) to bring the total volume to 400 µl. […] Then, 50 µl of a 0.l2 unit/ml human plasma kallikrein is added and the mixture is incubated at a temperature of 37°C for 5 minutes. Thereafter, 50 µl of 50% acetic acid is added to terminate the reaction. […] Thus, the concentration I₅₀ (µmol) of the inhibitor sample, at which the absorbance is one half (i.e., l/2) of that obtained in the absence of the inhibitor sample, is determined.

A value given as a limit tells only on which side of the number the result lay.

T1 sequence (P00747 581-810 limits assumed): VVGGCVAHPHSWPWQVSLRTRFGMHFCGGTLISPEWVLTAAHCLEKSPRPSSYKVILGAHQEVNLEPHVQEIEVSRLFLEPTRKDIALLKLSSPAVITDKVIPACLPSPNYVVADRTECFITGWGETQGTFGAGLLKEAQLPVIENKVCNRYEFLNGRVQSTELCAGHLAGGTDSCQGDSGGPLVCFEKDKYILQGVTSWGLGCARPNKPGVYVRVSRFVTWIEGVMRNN
T1 sequence (P00747 97-580 partner limits assumed): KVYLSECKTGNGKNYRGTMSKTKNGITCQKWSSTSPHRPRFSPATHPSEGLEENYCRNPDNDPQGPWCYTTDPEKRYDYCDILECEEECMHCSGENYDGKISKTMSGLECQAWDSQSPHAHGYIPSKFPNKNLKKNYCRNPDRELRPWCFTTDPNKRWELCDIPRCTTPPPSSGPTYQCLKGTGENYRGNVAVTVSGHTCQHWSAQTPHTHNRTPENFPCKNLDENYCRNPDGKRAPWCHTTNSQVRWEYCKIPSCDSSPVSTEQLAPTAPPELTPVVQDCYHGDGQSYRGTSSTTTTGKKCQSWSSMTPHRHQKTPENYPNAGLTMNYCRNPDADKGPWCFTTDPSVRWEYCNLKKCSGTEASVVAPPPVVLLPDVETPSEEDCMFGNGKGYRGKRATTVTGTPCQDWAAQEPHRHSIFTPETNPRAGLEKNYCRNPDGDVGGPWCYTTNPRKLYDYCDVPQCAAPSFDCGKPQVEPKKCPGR
Sequence of human plasma kallikrein (P03952 391-638 limits assumed): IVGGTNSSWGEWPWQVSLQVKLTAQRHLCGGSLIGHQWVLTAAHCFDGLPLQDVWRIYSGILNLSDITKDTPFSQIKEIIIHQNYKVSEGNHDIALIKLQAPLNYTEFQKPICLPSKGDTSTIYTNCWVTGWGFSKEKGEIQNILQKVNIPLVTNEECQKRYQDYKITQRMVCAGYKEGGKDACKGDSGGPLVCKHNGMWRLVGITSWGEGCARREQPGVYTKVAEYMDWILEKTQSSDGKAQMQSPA
Sequence of human plasma kallikrein (P03952 20-390 partner limits assumed): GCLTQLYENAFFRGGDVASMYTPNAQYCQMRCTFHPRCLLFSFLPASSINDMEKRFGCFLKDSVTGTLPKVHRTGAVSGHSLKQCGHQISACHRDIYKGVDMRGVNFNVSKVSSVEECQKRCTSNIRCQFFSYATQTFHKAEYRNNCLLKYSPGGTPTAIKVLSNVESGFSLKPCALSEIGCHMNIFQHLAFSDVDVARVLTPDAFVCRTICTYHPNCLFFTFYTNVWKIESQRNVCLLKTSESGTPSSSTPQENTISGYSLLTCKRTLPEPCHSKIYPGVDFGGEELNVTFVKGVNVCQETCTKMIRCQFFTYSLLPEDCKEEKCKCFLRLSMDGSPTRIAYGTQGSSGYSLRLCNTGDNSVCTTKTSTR

For the molecule `NCCCCC(=O)N[C@@H](Cc1ccccc1)C(=O)Nc1ccc(C(=O)c2ccccc2)cc1` [Compound No. 2, N-(5-aminovaleryl)-L-phenylalanine 4-benzoylanilide], the IC50 was 120 µM on human plasmin [1]; more than 100 µM at human plasmin [2]; more than 200 µM at bovine thrombin [3]; more than 100 µM against bovine thrombin [4]; 75 µM on bovine trypsin.

`CCOC(=O)CC(O)CNC(=O)[C@H](Cc1ccccc1)NC(=O)CCCCN` (stereo partly drawn) [Compound No. 3]: the IC50 at human plasmin [1], at human plasmin [2], at bovine thrombin [3], against bovine thrombin [4] and on human urokinase was more than 1000 µM in each case.

As for `CCOC(=O)CC(O)CNC(=O)[C@H](Cc1ccccc1)NC(=O)CCCCCN` (stereo partly drawn) [compound 5], the IC50 on human plasmin [1], on human plasmin [2], on bovine thrombin [3], on bovine thrombin [4], on human plasma kallikrein and on human urokinase was more than 500 µM in each case.

Take `NCCCCCC(=O)N[C@@H](Cc1ccc(O)cc1)C(=O)Nc1ccc(C(=O)c2ccccc2)cc1` [compound 7]: the IC50 was more than 100 µM at human plasmin [1]; more than 180 µM against bovine thrombin [3]; more than 120 µM against bovine thrombin [4]; more than 120 µM on human plasma kallikrein; 120 µM at human urokinase.

Take `CC(=O)c1ccc(NC(=O)[C@H](Cc2ccccc2)NC(=O)c2ccc(NC(=N)N)cc2)cc1` [compound 15]: the IC50 was more than 400 µM on human plasmin [1]; more than 200 µM at human plasmin [2]; 330 µM against bovine thrombin [3]; more than 500 µM at bovine thrombin [4]; 14 µM on bovine trypsin; 2.2 µM at human plasma kallikrein. The IC50 on human urokinase was determined as 190 µM.

As to `COc1ccc(NC(=O)[C@H](Cc2ccccc2)NC(=O)c2ccc(NC(=N)N)cc2)cn1` [compound 18], the IC50 against bovine thrombin [3] was more than 1000 µM; against bovine thrombin [4] it was more than 1000 µM; on bovine trypsin, 35 µM; on human plasma kallikrein it was 12 µM; at human urokinase it was 630 µM.

On to `CC1CCC(NC(=O)[C@H](Cc2ccccc2)NC(=O)c2ccc(NC(=N)N)cc2)CC1C` (stereo partly drawn) [compound 21], for which the IC50 was 450 µM at human plasmin [1]; 400 µM against bovine thrombin [3]; more than 100 µM against bovine thrombin [4]; 6 µM at bovine trypsin; 15 µM on human plasma kallikrein; 740 µM at human urokinase.

In the case of `COC(=O)[C@@H]1CCCN1C(=O)[C@H](Cc1ccccc1)NC(=O)c1ccc(NC(=N)N)cc1` [compound 22], the IC50 at human plasmin [1], on human plasmin [2], at bovine thrombin [3], on bovine thrombin [4], on human plasma kallikrein and on human urokinase was more than 1000 µM throughout.

The record behind these values is patent EP0298135A1, “Phenylalanine derivative and proteinase inhibitor” (Okamoto, Shosuke, priority 1987, dated 1989).
